# Laboratory results reported in paper PMC8119374 (Biochimie, 2021).
# Target: mitochondrial respiratory Complex I (Mus musculus, UniProt P03888+Q91WD5+Q9DC70)
# Assay type: biochemical
smiles,measurement,value
Cc1cc(OCc2nnc(SC3CCCC3)n2-c2cccnc2)ccc1-c1ccc(S(C)(=O)=O)cc1 [NMS-873],IC50,471 nM
